# Columns and labels:
# Assay type in all cases: in vivo
# [1] = tested on: barnyardgrass (Echinochloa crus-galli); experiment: Test A preemergence, directed soil spray, visual injury rating; conditions: approx. 10 d, 0 = no effect, 100 = complete control
# Procedure, shortened: (§1)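 Rated visually against untreated controls after approx. 10 d in greenhouse, scale 0 = no effect, 100 = complete control. Seeded loam/sand blend given directed soil spray preemergence, or plants sprayed at one- to two-leaf stage, 2-10 cm tall; surfactant-containing non-phytotoxic solvent formulation.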
# [2] = tested on: foxtail, giant (giant foxtail, Setaria faberii); experiment: as above; conditions: approx. 10 d, 0 = no effect, 100 = complete control
# Procedure, shortened: as §1
# kochia (Kochia scoparia) [3] = experiment: as above; conditions: approx. 10 d, 0 = no effect, 100 = complete control
# Procedure, shortened: as §1
# [4] = tested on: pigweed (Amaranthus retroflexus); experiment: as above; conditions: approx. 10 d, 0 = no effect, 100 = complete control
# Procedure, shortened: as §1
# [5] = tested on: ragweed (common ragweed, Ambrosia elation); experiment: as above; conditions: approx. 10 d, 0 = no effect, 100 = complete control
# Procedure, shortened: as §1
# [6] = tested on: ryegrass, Italian (Italian ryegrass, Lolium multiflorum); experiment: as above; conditions: approx. 10 d, 0 = no effect, 100 = complete control
# Procedure, shortened: as §1
# [7] = tested on: barnyardgrass (Echinochloa crus-galli); experiment: Test A postemergence application, visual injury rating; conditions: approx. 10 d, 0 = no effect, 100 = complete control
# Procedure, shortened: as §1
# [8] = tested on: blackgrass (Alopecurus myosuroides); experiment: as above; conditions: approx. 10 d, 0 = no effect, 100 = complete control
# Procedure, shortened: as §1
# corn (Zea mays) = experiment: as above; conditions: approx. 10 d, 0 = no effect, 100 = complete control
# Procedure, shortened: as §1
# [9] = tested on: foxtail, giant (giant foxtail, Setaria faberii); experiment: as above; conditions: approx. 10 d, 0 = no effect, 100 = complete control
# Procedure, shortened: as §1
# [10] = tested on: galium (catchweed bedstraw, Galium aparine); experiment: as above; conditions: approx. 10 d, 0 = no effect, 100 = complete control
# Procedure, shortened: as §1
# kochia (Kochia scoparia) [11] = experiment: as above; conditions: approx. 10 d, 0 = no effect, 100 = complete control
# Procedure, shortened: as §1
# [12] = tested on: pigweed (Amaranthus retroflexus); experiment: as above; conditions: approx. 10 d, 0 = no effect, 100 = complete control
# Procedure, shortened: as §1
# [13] = tested on: ragweed (common ragweed, Ambrosia elation); experiment: as above; conditions: approx. 10 d, 0 = no effect, 100 = complete control
# Procedure, shortened: as §1
# [14] = tested on: ryegrass, Italian (Italian ryegrass, Lolium multiflorum); experiment: as above; conditions: approx. 10 d, 0 = no effect, 100 = complete control
# Procedure, shortened: as §1
# [15] = tested on: wheat (Triticum aestivum); experiment: as above; conditions: approx. 10 d, 0 = no effect, 100 = complete control
# Procedure, shortened: as §1
# [16] = tested on: barnyardgrass (Echinochloa crus-galli); experiment: Test B flooded paddy test, visual plant response rating; conditions: 250 g ai/ha; applied to paddy water at 2-leaf stage; rated after 13 to 15 days; scale 0 to 100, 0 is no effect, 100 is complete control
# Procedure, shortened: (§2)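 Visual 0–100 scores (0 none, 100 complete control) versus controls were taken 13 to 15 days after treatment in a greenhouse. Treatment was applied into flood water kept at 3 cm over the soil surface for the whole test.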
# [17] = tested on: ducksalad (Heteranthera limosa); experiment: as above; conditions: 250 g ai/ha; applied to paddy water at 2-leaf stage; rated after 13 to 15 days; scale 0 to 100, 0 is no effect, 100 is complete control
# Procedure, shortened: as §2
# rice (Oryza sativa) = experiment: as above; conditions: 250 g ai/ha; applied to paddy water at 2-leaf stage; rated after 13 to 15 days; scale 0 to 100, 0 is no effect, 100 is complete control
# Procedure, shortened: as §2
# [18] = tested on: sedge, umbrella (small-flower umbrella sedge, Cyperus difformis); experiment: as above; conditions: 250 g ai/ha; applied to paddy water at 2-leaf stage; rated after 13 to 15 days; scale 0 to 100, 0 is no effect, 100 is complete control
# Procedure, shortened: as §2
SMILES,Barnyardgrass plant response rating (0 to 100 scale) ([1]; 125 g ai/ha),Barnyardgrass plant response rating (0 to 100 scale) ([1]; 500 g ai/ha),"Foxtail, Giant plant response rating (0 to 100 scale) ([2]; 125 g ai/ha)","Foxtail, Giant plant response rating (0 to 100 scale) ([2]; 500 g ai/ha)",Kochia plant response rating (0 to 100 scale) (kochia (Kochia scoparia) [3]; 125 g ai/ha),Kochia plant response rating (0 to 100 scale) (kochia (Kochia scoparia) [3]; 500 g ai/ha),Pigweed plant response rating (0 to 100 scale) ([4]; 125 g ai/ha),Pigweed plant response rating (0 to 100 scale) ([4]; 500 g ai/ha),Ragweed plant response rating (0 to 100 scale) ([5]; 125 g ai/ha),Ragweed plant response rating (0 to 100 scale) ([5]; 500 g ai/ha),"Ryegrass, Italian plant response rating (0 to 100 scale) ([6]; 125 g ai/ha)","Ryegrass, Italian plant response rating (0 to 100 scale) ([6]; 500 g ai/ha)",Barnyardgrass plant response rating (0 to 100 scale) ([7]; 125 g ai/ha),Barnyardgrass plant response rating (0 to 100 scale) ([7]; 500 g ai/ha),Blackgrass plant response rating (0 to 100 scale) ([8]; 125 g ai/ha),Blackgrass plant response rating (0 to 100 scale) ([8]; 500 g ai/ha),Corn plant response rating (0 to 100 scale) (corn (Zea mays); 125 g ai/ha),Corn plant response rating (0 to 100 scale) (corn (Zea mays); 500 g ai/ha),"Foxtail, Giant plant response rating (0 to 100 scale) ([9]; 125 g ai/ha)","Foxtail, Giant plant response rating (0 to 100 scale) ([9]; 500 g ai/ha)",also measured
CCc1ccc(C2Cn3cnnc3C2C(=O)Nc2ccccc2SC)cc1 (stereo not drawn) [Compound 25],0,40,0,40,0,20,0,0,0,0,0,0,20,30,0,0,0,0,0,30,"Galium plant response rating (0 to 100 scale) ([10]; 125 g ai/ha): 0; Galium plant response rating (0 to 100 scale) ([10]; 500 g ai/ha): 0; Kochia plant response rating (0 to 100 scale) (kochia (Kochia scoparia) [11]; 125 g ai/ha): 30; Kochia plant response rating (0 to 100 scale) (kochia (Kochia scoparia) [11]; 500 g ai/ha): 30; Pigweed plant response rating (0 to 100 scale) ([12]; 125 g ai/ha): 0; Pigweed plant response rating (0 to 100 scale) ([12]; 500 g ai/ha): 0; Ragweed plant response rating (0 to 100 scale) ([13]; 125 g ai/ha): 0; Ragweed plant response rating (0 to 100 scale) ([13]; 500 g ai/ha): 0; Ryegrass, Italian plant response rating (0 to 100 scale) ([14]; 125 g ai/ha): 0; Ryegrass, Italian plant response rating (0 to 100 scale) ([14]; 500 g ai/ha): 0; Wheat plant response rating (0 to 100 scale) ([15]; 125 g ai/ha): 0; Wheat plant response rating (0 to 100 scale) ([15]; 500 g ai/ha): 0; Plant response rating, Flood, Barnyardgrass [16]: 0; Plant response rating, Flood, Ducksalad [17]: 65; Plant response rating, Flood, Rice (rice (Oryza sativa)): 0; Plant response rating, Flood, Sedge, Umbrella [18]: 0"
Cc1ccc(C2Cn3cnnc3C2C(=O)Nc2cccc(F)c2C)cc1C (stereo not drawn) [Compound 26],60,90,80,90,20,30,0,0,0,0,0,50,50,80,0,50,20,0,50,80,"Galium plant response rating (0 to 100 scale) ([10]; 125 g ai/ha): 30; Galium plant response rating (0 to 100 scale) ([10]; 500 g ai/ha): 0; Kochia plant response rating (0 to 100 scale) (kochia (Kochia scoparia) [11]; 125 g ai/ha): 0; Kochia plant response rating (0 to 100 scale) (kochia (Kochia scoparia) [11]; 500 g ai/ha): 0; Pigweed plant response rating (0 to 100 scale) ([12]; 125 g ai/ha): 0; Pigweed plant response rating (0 to 100 scale) ([12]; 500 g ai/ha): 0; Ragweed plant response rating (0 to 100 scale) ([13]; 125 g ai/ha): 0; Ragweed plant response rating (0 to 100 scale) ([13]; 500 g ai/ha): 0; Ryegrass, Italian plant response rating (0 to 100 scale) ([14]; 125 g ai/ha): 0; Ryegrass, Italian plant response rating (0 to 100 scale) ([14]; 500 g ai/ha): 20; Wheat plant response rating (0 to 100 scale) ([15]; 125 g ai/ha): 30; Wheat plant response rating (0 to 100 scale) ([15]; 500 g ai/ha): 0; Plant response rating, Flood, Barnyardgrass [16]: 0; Plant response rating, Flood, Ducksalad [17]: 85; Plant response rating, Flood, Rice (rice (Oryza sativa)): 20; Plant response rating, Flood, Sedge, Umbrella [18]: 0"
Cc1ccc(C2Cn3c(C)nnc3C2C(=O)Nc2ccccc2F)cc1 (stereo not drawn) [Compound 27],0,90,80,90,0,0,0,0,0,0,20,20,40,90,0,20,0,0,30,90,"Galium plant response rating (0 to 100 scale) ([10]; 125 g ai/ha): 0; Galium plant response rating (0 to 100 scale) ([10]; 500 g ai/ha): 40; Kochia plant response rating (0 to 100 scale) (kochia (Kochia scoparia) [11]; 125 g ai/ha): 0; Kochia plant response rating (0 to 100 scale) (kochia (Kochia scoparia) [11]; 500 g ai/ha): 0; Pigweed plant response rating (0 to 100 scale) ([12]; 125 g ai/ha): 0; Pigweed plant response rating (0 to 100 scale) ([12]; 500 g ai/ha): 0; Ragweed plant response rating (0 to 100 scale) ([13]; 125 g ai/ha): 0; Ragweed plant response rating (0 to 100 scale) ([13]; 500 g ai/ha): 0; Ryegrass, Italian plant response rating (0 to 100 scale) ([14]; 125 g ai/ha): 0; Ryegrass, Italian plant response rating (0 to 100 scale) ([14]; 500 g ai/ha): 30; Wheat plant response rating (0 to 100 scale) ([15]; 125 g ai/ha): 0; Wheat plant response rating (0 to 100 scale) ([15]; 500 g ai/ha): 0; Plant response rating, Flood, Barnyardgrass [16]: 0; Plant response rating, Flood, Ducksalad [17]: 70; Plant response rating, Flood, Rice (rice (Oryza sativa)): 0; Plant response rating, Flood, Sedge, Umbrella [18]: 0"
CCc1ccc(C2Cn3cnnc3C2C(=O)Nc2cccc(F)c2C)cc1 (stereo not drawn) [Compound 28],60,90,70,90,60,60,0,0,0,30,0,30,50,80,20,40,0,0,40,60,"Galium plant response rating (0 to 100 scale) ([10]; 125 g ai/ha): 20; Galium plant response rating (0 to 100 scale) ([10]; 500 g ai/ha): 30; Kochia plant response rating (0 to 100 scale) (kochia (Kochia scoparia) [11]; 125 g ai/ha): 20; Kochia plant response rating (0 to 100 scale) (kochia (Kochia scoparia) [11]; 500 g ai/ha): 50; Pigweed plant response rating (0 to 100 scale) ([12]; 125 g ai/ha): 0; Pigweed plant response rating (0 to 100 scale) ([12]; 500 g ai/ha): 0; Ragweed plant response rating (0 to 100 scale) ([13]; 125 g ai/ha): 0; Ragweed plant response rating (0 to 100 scale) ([13]; 500 g ai/ha): 0; Ryegrass, Italian plant response rating (0 to 100 scale) ([14]; 125 g ai/ha): 0; Ryegrass, Italian plant response rating (0 to 100 scale) ([14]; 500 g ai/ha): 50; Wheat plant response rating (0 to 100 scale) ([15]; 125 g ai/ha): 0; Wheat plant response rating (0 to 100 scale) ([15]; 500 g ai/ha): 0; Plant response rating, Flood, Barnyardgrass [16]: 40; Plant response rating, Flood, Ducksalad [17]: 90; Plant response rating, Flood, Rice (rice (Oryza sativa)): 20; Plant response rating, Flood, Sedge, Umbrella [18]: 75"
